{
  "source": "patent US20250295717A1",
  "about": "“RE[…] OF R[…] VIRUS, COMBINATION, AND APPLICATION THEREOF” (NEUREGEN BIOTHERAPEUTICS (SHANGHAI) CO. LTD, priority 2022, published 2025)",
  "key": {"[1]": {"test_system": "human glioma U87 cells subcutaneous implantation", "assay": "Subcutaneous U87 glioma model, combination with temozolomide (Example 5)", "format": "in vivo, mouse", "protocol": "(§1) For the subcutaneous glioma model, human U87 glioma cells were cultured, and during the logarithmic growth phase, they were inoculated into the axillae of nude mice. After two passages, the tumor tissue was collected under sterile conditions, and the tumor mass was cut into uniform small pieces approximately the size of grains of rice, which were then inoculated subcutaneously in the axillae of nude mice using an implantation needle. Once the tumor grew to approximately 100 mm^3, the mice were randomly grouped, and the treatment began. All samples were dissolved in PBS, with an injection volume of 50 μL/tumor. The length and width of the tumor were measured every three days, and the tumor volume was calculated using the formula: […]\nIn this example, a subcutaneous implantation model using human glioma U87 cells in BALB/c nu/nu mice was adopted. U87 human glioblastoma cells were inoculated into the armpits of the nude mice during the logarithmic growth phase. When the tumor grew to approximately 100 mm^3, appropriate tumor-bearing mice were randomly grouped. After grouping, treatment commenced, with the PBS group serving as the control. The Ad5-AN group received a dose of 1×10^9 PFU, while the temozolomide (TMZ) gavage group received 15 mg/kg once daily for five days, followed by two days off. Additionally, there was a combination treatment group of Ad5-AN and temozolomide (Ad5-AN+TMZ), with Ad5-AN administered every two days for a total of five doses. Tumor volume was measured every three days, and later, the animals were euthanized to weigh the tumors and perform biochemical and molecular analyses."}, "[2]": {"test_system": "glioma cells (U87-luc) implanted into the brain", "assay": "Brain orthotopic glioma model U87-luc (Example 6)", "format": "in vivo, mouse", "details": "Ad5-AN 1×10^9 PFU every four days, three doses, TMZ 15 mg/kg, PBS group 22.3 days", "protocol": "For the orthotopic glioma model, 7-week-old NOD-scid mice were used. Human glioma cells, either induced with […] or not induced, were centrifuged to remove the supernatant, resulting in a cell density of approximately 2.5×10^5 cells/μL. A total of 2 μL (5×10^5 cells) was implanted into the striatum of each mouse. After three weeks, histological analysis or viral injection was performed, followed by immunohistochemical detection.\nIn this example, glioma cells (U87-luc) were first implanted into the brain (5×10^5 cells). After 7 days of implantation, the mice were grouped for treatment, with the PBS group serving as the control. The Ad5-AN group received a dose of 1×10^9 PFU, while the temozolomide (TMZ) gavage group received 15 mg/kg once daily for five days, followed by two days off. Additionally, there was a combination treatment group of Ad5-AN and temozolomide, with Ad5-AN administered every four days for a total of three doses."}, "human glioma tissue PDX": {"test_system": "human glioma tissue PDX", "assay": "Patient-derived tumor xenograft (PDX) model from human glioma tissue (Example 7)", "format": "in vivo, mouse", "protocol": "To further validate the combined effect of oncolytic viruses and redifferentiation therapy, this implementation was tested in a patient-derived tumor xenograft (PDX) model constructed from human glioma tissue. PDX tissues were inoculated into the armpits of nude mice for passaging, and when they reached the logarithmic growth phase, they were re-inoculated into the armpits of nude mice. When the tumor grew to approximately 100 mm^3, appropriate tumor-bearing mice were randomly grouped. After grouping, treatment commenced, with the PBS group serving as the control. The Ad5-AN group received a dose of 1×10^9 PFU, while the temozolomide (TMZ) gavage group received 15 mg/kg once daily for five days, followed by two days off. Additionally, there was a combination treatment group of Ad5-AN and temozolomide, with Ad5-AN administered every two days for a total of five doses. Tumor volume was measured every three days, and later, the animals were euthanized to weigh the tumors and perform biochemical and molecular analyses."}, "[3]": {"test_system": "human glioblastoma U87 ectopic implantation", "assay": "Human glioblastoma U87 BALB/CA-nu mouse ectopic implantation model, recombinant HSV (Example 8)", "format": "in vivo", "protocol": "as §1\nIn this implementation, type 1 herpes simplex virus (HSV) was used as an oncolytic virus vector, with fragments from human Ascl1 (SEQ ID No. 11) and the coding sequence (CDS) of human Ngn2 (SEQ ID No. 15) inserted to achieve efficient co-expression of Ascl1 and Ngn2. After packaging and purifying the recombinant HSV, tests were conducted using a human glioblastoma U87 BALB/CA-nu mouse ectopic implantation model. […] Tumor volume was measured every three days, and later, the animals were euthanized to weigh the tumors and perform biochemical and molecular analyses. […]"}, "[4]": {"details": "U87 subcutaneous, extended experiment"}},
  "data": [
    {"smiles": "Cn1nnc2c(C(N)=O)ncn2c1=O", "note": "[temozolomide]", "values": [
      {"measurement": "time at which tumor growth approached 2000 mm^3", "setting": "[1]; [4]", "value": "around 60 days"},
      {"measurement": "time at which tumors gradually relapsed post-treatment", "setting": "[1]; [4]", "value": "around 35 days"},
      {"measurement": "tumor recurrence after 56 days", "setting": "[1]; mice with recurrence / seven mice, FIG. 5", "value": "7/7"},
      {"measurement": "average survival", "setting": "[2]", "value": 56.8, "unit": "days"},
      {"measurement": "time at which tumors gradually relapsed post-treatment", "setting": "human glioma tissue PDX", "value": "around 45 days"},
      {"measurement": "time at which tumors reached nearly 2000 mm^3", "setting": "human glioma tissue PDX", "value": "around 72 days"},
      {"measurement": "tumors relapsed and began to regrow", "setting": "human glioma tissue PDX; around 45 days post-treatment", "value": "6/6"},
      {"measurement": "tumor volume decrease", "setting": "[3]; after 10 days of treatment, HSV 2×10^6 PFU every two days, five doses, TMZ 15 mg/kg", "value": 73.6, "unit": "%"},
      {"measurement": "tumor recurrence", "setting": "[3]; after two months", "value": "6/6"}
    ]}
  ]
}
